Data from patent US6800467B1, “Polypeptides having aminopeptidase activity and nucleic acids encoding same” (Novozymes Biotech, Inc., priority 1997, dated 2004).

Molecular target: T1, aminopeptidase II (Aspergillus oryzae, UniProt Q2ULM2)
T1 construct: the first 15 amino acids likely comprise a secretory signal peptide; made in house; host or cells: Aspergillus oryzae JaL142-6 (alkaline protease-deficient), plasmid pEJG19; purified from shake flask supernatant on Q-Sepharose
Experiment: Inhibition of the aminopeptidase II with 1,10-phenanthroline, Leu-pNA as substrate
Format: biochemical
Conditions: pH 7.5
Description: Inhibition of the aminopeptidase II with 1,10-phenanthroline was evaluated using Leu-pNA as substrate at pH 7.5 in 50 mM Tris pH 7.5 buffer where hydrolysis was monitored at 405 nm. A 200 mM solution of 1,10-phenanthroline in methanol was prepared. The inhibition reaction was conducted by mixing 100 μl of 2 mg of Leu-pNA per ml of 50 mM sodium phosphate pH 7.5 solution and 10 μl of the 1,10-phenanthroline solution with 100 μl of aminopeptidase II diluted 5-fold in 50 mM sodium phosphate pH 7.5 buffer. A control was run where 10 μl of 20 mM Tris pH 7.6 buffer was used in place of the 1,10-phenantholine solution.

T1 sequence (Q2ULM2 17-496): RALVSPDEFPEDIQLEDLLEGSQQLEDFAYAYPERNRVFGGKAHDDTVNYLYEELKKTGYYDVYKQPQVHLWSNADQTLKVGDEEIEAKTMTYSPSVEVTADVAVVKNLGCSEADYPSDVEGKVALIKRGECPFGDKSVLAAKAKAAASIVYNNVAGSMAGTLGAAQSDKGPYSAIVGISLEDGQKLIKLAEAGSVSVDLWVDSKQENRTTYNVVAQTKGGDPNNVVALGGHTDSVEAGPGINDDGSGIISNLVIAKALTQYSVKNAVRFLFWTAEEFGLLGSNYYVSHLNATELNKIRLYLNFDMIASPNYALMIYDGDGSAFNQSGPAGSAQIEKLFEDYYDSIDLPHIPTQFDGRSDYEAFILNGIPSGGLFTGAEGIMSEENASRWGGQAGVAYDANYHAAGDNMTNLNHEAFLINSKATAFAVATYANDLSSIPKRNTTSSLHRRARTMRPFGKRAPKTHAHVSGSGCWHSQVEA

c1cnc2c(c1)ccc1cccnc12 [1,10-phenanthroline] was tested, and the “Inhibition of the aminopeptidase II” value (Leu-pNA as substrate, 10 μl of 200 mM 1,10-phenanthroline in methanol) was “inhibited” and the “rate of hydrolysis of Leu-pNA in the presence of 1,10-phenanthroline” value (control without inhibitor 285 mOD/minute) was 21 mOD/minute.
